Experimental data from patent US6750332B1, “Salicyl alcohol derivatives” (Cognis Deutschland GmbH & Co. KG, priority 1999, dated 2004).

What was measured:
[1] = test system: prostaglandin synthesis in MSCP5 cells; test: Inhibition of prostaglandin synthesis/release in keratinocytes (14C-arachidonic acid labelling); format: cell-based, mouse; settings: 10 μm, incubated 2 hours
Procedure: Inhibition of Prostaglandin Synthesis by Salicin Derivatives (in Mouse or Human Skin Keratinocytes MSCP 5 or HPK II)
The cells were marked for 16 hours with 0.2 μCi ^14C-arachidonic acid ml^−1 medium. The test substances were added in fresh medium with increasing concentrations and incubated for 2 hours. In the Figure, the substances have the following meanings:
In the positive control NS398 (10 μm) for MSCP5 cells, prostaglandin synthesis is reduced by 85%. The prostaglandins were identified by comparison with reference substances and quantified by radiosensitometry. The result is expressed as the average value of three measurement points: MSCP 5: 100%=201 cpm; HPK II: 100%=63 cpm.

[2] = HLB value (ratio of hydrophilic to hydrophobic component); format: physicochemical
Excerpt: The salicyl alcohol derivatives according to the invention have valuable biological activities such as, for example, anti-inflammatory, antipyretic, antiphlogistic or analgesic effects. Thus, prostaglandin synthesis is inhibited to a greater extent with the compounds according to the invention than, for example, with compounds known from the literature, such as salicin, which is associated with the greater lipophilia of the compounds according to the invention. The better effect is dependent inter alia on efficient absorption by the cell membranes of the keratinocytes. The lipid solubility of glycosidic compounds derives from the ratio of hydrophilic component to hydrophobic component which is described by the HLB value. Salicin which has an HLB value of about 12 is more of a water-soluble molecule whereas salicin esters with HLB values of, in some cases, well below 10 are more liposoluble molecules.

[3] = test system: mouse MSCP 5 keratinocytes; test: Cytotoxicity, MTT test in mouse skin keratinocytes; format: cell-based; settings: concentrations showing inhibition of prostaglandin synthesis, incubation 1.5 or 20 h, confluent or subconfluent
Excerpt: (§1) Cytotoxicity (in Mouse or Human Skin Keratinocytes, MSCP 5 or HPK II)
(§2) The toxicity of the substances was investigated by the MTT Test (Mosmann 1983) in cell cultures. This test is based on the conversion of the yellow tetrazolium salt MTT into the violet dye formazane. The reaction takes place only in living cells through the succinate dehydrogenase located in the inner mitochondrial membranes. On account of the potential use in cosmetic or pharmaceutical products, skin cells (human HPKII or mouse MSCP 5 keratinocytes) were used as the test system. […] The effect of the substances on the keratinocytes was independent of the time (incubation time 1.5 or 20 h), the growth state (confluent or subconfluent) and the organism (mouse or human).
(§3) The substances were dissolved in the culture medium and incubated with the cells for 20 h. The MTT reduction test was then carried out with fresh medium without test components.

[4] = test system: human HPKII keratinocytes; test: Cytotoxicity, MTT test in human skin keratinocytes; format: cell-based; settings: for toxicity to the cells (MTT test): human HPKII keratinocytes, concentrations showing inhibition of prostaglandin synthesis, incubation 1.5 or 20 h, confluent or subconfluent; for influence on the vitality of skin cells (keratinocytes), FIG. 1: incubated 20 h in culture medium, then MTT reduction test, cell line not given
Excerpt: as §1, §2, §3

[5] = test system: COX-2-mRNA in MSCP 5 cells; test: Northern Blot analysis of COX-2 mRNA in keratinocytes; format: cell-based, mouse; settings: subconfluent MSCP 5 cells, 500 μM, 45 mins
Procedure: Influencing of the Transcription Activity of HPK II (Human Skin Keratinocytes)
The release of prostaglandins can be influenced by inhibitors at several levels. Besides inhibition of the catalytic activity of the prostaglandin synthase proteins, another possible effect is on the messenger RNA of the cyclooxygenases. […] As a negative control, the cells were incubated for 45 minutes in medium containing only the solubilizer acetone (0.25%) but no test substance for the same recorded RNA concentration.

Structure (SMILES) | reduction of prostaglandin synthesis [1] [%] | HLB value [2] | toxicity to the cells (MTT test) [3] | toxicity to the cells (MTT test) [4] | influence on the vitality of skin cells (keratinocytes), FIG. 1 [4] | COX-2-mRNA steady state concentration by comparison with untreated cells [5]
CS(=O)(=O)Nc1ccc([N+](=O)[O-])cc1OC1CCCCC1 [NS398] | 85 |  |  |  |  | 
OCc1ccccc1O[C@@H]1O[C@H](CO)[C@@H](O)[C@H](O)[C@H]1O [Salicin, [2-(hydroxymethyl)phenyl]-β-D-glucopyranoside] |  | about 12 |  |  |  | 
O=C(Cc1ccc(O)cc1)OC[C@H]1O[C@@H](Oc2ccccc2CO)[C@H](O)[C@@H](O)[C@@H]1O [p-OH-phenyl acetyl salicin, 6-O-p-OH-phenylacetyl-([2-hydroxymethyl)phenyl]-β-D-glucopyranoside] |  |  | non-toxic | non-toxic | minimal | greatly reduced
O=C(CCc1ccccc1)OC[C@H]1O[C@@H](Oc2ccccc2CO)[C@H](O)[C@@H](O)[C@@H]1O [phenylpropionyl salicin, 6-O-phenylpropionyl-[2-(hydroxymethyl)phenyl]-β-D-glucopyranoside] |  |  | non-toxic | non-toxic | minimal | 
